Measured values from BindingDB's records for doi:10.7270/Q2H70D5W (University of Pittsburgh, 2007).

Molecular target: Gag-Pol polyprotein (Human immunodeficiency virus type 1 group M subtype B (isolate HXB2), UniProt P04585)
Assay: HIV-1 RT RNase H inhibitor potency, dose response, biochemical, probe assessment (AID 652)
Settings: pH 8; 23 °C

Compound | IC50
Cc1nn(CCC#N)c2c1P(=S)(N1CCCC1)OC(c1ccc(F)cc1)=N2 (stereo not given) [3-[3-(4-fluorophenyl)-7-methyl-1-(1-pyrrolidinyl)-1-sulfanylidene-5-pyrazolo[4,3-c][1,5,2]oxazaphosphorinyl]propanenitrile] | 0.879 µM
COc1ccc2nc(O)c(CN(C3CCCCC3)C(c3nnnn3Cc3ccco3)C(C)C)cc2c1 (stereo not given) [3-[[cyclohexyl-[1-[1-(2-furanylmethyl)-5-tetrazolyl]-2-methylpropyl]amino]methyl]-6-methoxy-1H-quinolin-2-one] | 1.03 µM
C=CCn1c(N)c(C(=O)NCCC2=CCCCC2)sc1=S [3-allyl-4-amino-N-(2-cyclohex-1-en-1-ylethyl)-2-thioxo-2,3-dihydro-1,3-thiazole-5-carboxamide] | 3.82 µM
COC(=O)c1oc2ccc(Br)cc2c1NC(=O)c1ccccc1 [3-benzamido-5-bromo-2-benzofurancarboxylic acid methyl ester] | 0.989 µM
COc1ccc2ccccc2c1C1CC(=O)N2CN(C3CCCCC3)CSC2=C1C#N (stereo not given) [3-cyclohexyl-8-(2-methoxynaphthalen-1-yl)-6-oxo-2,4,7,8-tetrahydropyrido[2,1-b][1,3,5]thiadiazine-9-carbonitrile] | 3.62 µM
CCOc1cc(C2CC(=O)N3CN(C4CCCCC4)CSC3=C2C#N)ccc1O (stereo not given) [3-cyclohexyl-8-(3-ethoxy-4-hydroxy-phenyl)-6-keto-2,4,7,8-tetrahydropyrido[2,1-b][1,3,5]thiadiazine-9-carbonitrile] | 19.5 µM
O=C1CCCC(=O)C1C(C#Cc1ccccc1)C1C(=O)CCCC1=O [3-hydroxy-2-[1-(2-hydroxy-6-keto-cyclohexen-1-yl)-3-phenyl-prop-2-ynyl]cyclohex-2-en-1-one] | 1.08 µM
O=C(O)c1ccc2c(c1)NC(=O)C(N1CCCC1)S2 (stereo not given) [3-keto-2-pyrrolidino-4H-1,4-benzothiazine-6-carboxylic acid] | 3.69 µM
CC(C)CN(C(=O)COC(=O)c1ccc2c(c1)NC(=O)CS2)C1CCS(=O)(=O)C1 (stereo not given) [3-keto-4H-1,4-benzothiazine-6-carboxylic acid [2-[(1,1-diketothiolan-3-yl)-isobutyl-amino]-2-keto-ethyl] ester] | 30.3 µM
COc1cc(OC)c(C2CC(=O)N3CN(C)CSC3=C2C#N)cc1OC (stereo not given) [3-methyl-6-oxidanylidene-8-(2,4,5-trimethoxyphenyl)-2,4,7,8-tetrahydropyrido[2,1-b][1,3,5]thiadiazine-9-carbonitrile] | 14.5 µM
Cc1ccc(Cn2c(SCC(C)C)nc3c2c(=O)[nH]c(=O)n3C)cc1 [3-methyl-7-[(4-methylphenyl)methyl]-8-(2-methylpropylthio)purine-2,6-dione] | 1.71 µM
C=CCSc1nc2c(c(=O)[nH]c(=O)n2C)n1C(C)C [3-methyl-7-propan-2-yl-8-prop-2-enylsulfanylpurine-2,6-dione] | > 50 µM
CC1CC(C)(C)NC(=S)S1 (stereo not given) [4,4,6-trimethyl-1,3-thiazinane-2-thione] | 5.24 µM
CCCc1cc(C(=O)Nc2sc(C)c(C)c2C(=O)OCC)no1 [4,5-dimethyl-2-[(5-propylisoxazole-3-carbonyl)amino]thiophene-3-carboxylic acid ethyl ester] | 2.53 µM
C=CCc1c(C)nc(S)c(C#N)c1C [4,6-dimethyl-5-prop-2-enyl-2-sulfanylidene-1H-pyridine-3-carbonitrile] | 7.25 µM
Cc1ccc(-n2nc(C)c3c2NC(=O)CSC3c2ccc3c(c2)OCO3)cc1 (stereo not given) [4-(1,3-benzodioxol-5-yl)-3-methyl-1-(4-methylphenyl)-2,4-dihydropyrazolo[3,4-e][1,4]thiazepin-7-one] | 5.2 µM
CCOC(=O)c1c(C2COc3ccccc3O2)csc1NC(=O)c1ccco1 (stereo not given) [4-(2,3-dihydro-1,4-benzodioxin-3-yl)-2-(2-furoylamino)thiophene-3-carboxylic acid ethyl ester] | 0.654 µM
COc1ccc(Cn2nnnc2C(c2cccnc2)N2CCN(c3ccc(O)cc3)CC2)cc1 (stereo not given) [4-(4-{[1-(4-Methoxy-benzyl)-1H-tetrazol-5-yl]-pyridin-3-yl-methyl}-piperazin-1-yl)-phenol] | > 50 µM
CCn1c2ccccc2c2nc3cc(S(=O)(=O)N4CCOCC4)ccc3nc21 [4-(6-ethylindolo[2,3-b]quinoxalin-2-yl)sulfonylmorpholine] | 1.02 µM
COc1cccc(-c2nnc(NC(=O)c3ccc(S(=O)(=O)N(CC(C)C)CC(C)C)cc3)o2)c1 [4-(diisobutylsulfamoyl)-N-[5-(3-methoxyphenyl)-1,3,4-oxadiazol-2-yl]benzamide] | 4.77 µM
CCCN(CCC)S(=O)(=O)c1ccc(C(=O)Nc2nnc(-c3cccc(OC)c3)o2)cc1 [4-(dipropylsulfamoyl)-N-[5-(3-methoxyphenyl)-1,3,4-oxadiazol-2-yl]benzamide] | 21.2 µM
COc1ccc(OC)c(Nc2nc(-c3ccc(O)c(O)c3)cs2)c1 [4-[2-(2,5-Dimethoxy-phenylamino)-thiazol-4-yl]-benzene-1,2-diol] | 1.48 µM
O=C(CCCn1c(SCC(=O)c2ccc(O)c(O)c2)nc2ccccc2c1=O)NCC1CCCO1 (stereo not given) [4-[2-[2-(3,4-dihydroxyphenyl)-2-oxoethyl]sulfanyl-4-oxoquinazolin-3-yl]-N-(oxolan-2-ylmethyl)butanamide] | 0.879 µM

Compound | IC50
Cc1nc(-c2cccc(S(=O)(=O)N3CCOCC3)c2)cs1 [4-[3-(2-methyl-1,3-thiazol-4-yl)phenyl]sulfonylmorpholine] | 5.96 µM
Nc1ccc(-c2nnc(-c3ccc(-c4ccccc4)cc3)o2)cc1 [4-[5-(4-phenylphenyl)-1,3,4-oxadiazol-2-yl]aniline] | 2.71 µM
Nc1c(S(=O)(=O)c2cccc(Cl)c2)c2c(n1N=CC1=CC(=O)C(=O)C=C1)Nc1ccccc1N2 [4-[[2-azanyl-3-(3-chlorophenyl)sulfonyl-4,9-dihydropyrrolo[3,2-b]quinoxalin-1-yl]iminomethyl]cyclohexa-3,5-diene-1,2-dione] | 0.266 µM
COc1ccc(N2CCN(Cc3cc(=O)oc4cc5c(cc34)CCCC5)CC2)cc1 [4-[[4-(4-methoxyphenyl)-1-piperazinyl]methyl]-6,7,8,9-tetrahydrobenzo[g][1]benzopyran-2-one] | 4.35 µM
COc1ccc(N2CCN(Cc3cc(=O)oc4cc(-c5ccccc5)c(O)cc34)CC2)cc1 [4-[[4-(4-methoxyphenyl)piperazin-1-yl]methyl]-6-oxidanyl-7-phenyl-chromen-2-one] | 3.86 µM
CCN(Cc1ccccc1)S(=O)(=O)c1ccc(C(=O)Nc2nnc(-c3ccccc3OC)o2)cc1 [4-[benzyl(ethyl)sulfamoyl]-N-[5-(2-methoxyphenyl)-1,3,4-oxadiazol-2-yl]benzamide] | 8.96 µM
Cc1ccc(-n2c(N)c(C(N)=O)sc2=S)cc1 [4-amino-3-(4-methylphenyl)-2-sulfanylidene-1,3-thiazole-5-carboxamide] | 2.58 µM
Cc1ccc(-n2c(N)c(C(=O)N3CCCCC3)sc2=S)cc1 [4-amino-3-(4-methylphenyl)-5-(1-piperidinylcarbonyl)-1,3-thiazole-2(3H)-thione] | 2.3 µM
Cc1ccc(-n2c(N)c(C(=O)N3CCOCC3)sc2=S)cc1 [4-amino-3-(4-methylphenyl)-5-(4-morpholinylcarbonyl)-1,3-thiazole-2(3H)-thione] | 4.9 µM
Cc1ccc(-n2c(N)c(C(=O)N3CCN(C)CC3)sc2=S)cc1 [4-amino-3-(4-methylphenyl)-5-[(4-methyl-1-piperazinyl)carbonyl]-1,3-thiazole-2(3H)-thione] | > 50 µM
O=C(NC(=O)c1ccc(Cl)cc1)Nc1cc(N2CCCCC2)ncn1 [4-chloranyl-N-[(6-piperidin-1-ylpyrimidin-4-yl)carbamoyl]benzamide] | 8.45 µM
CCOC(=O)c1sc(NC(=O)CSc2nnc(Cc3ccccc3)o2)c(C#N)c1C [4-cyano-3-methyl-5-[[1-oxo-2-[[5-(phenylmethyl)-1,3,4-oxadiazol-2-yl]thio]ethyl]amino]-2-thiophenecarboxylic acid ethyl ester] | 0.094 µM
CCOc1ccc(S(=O)(=O)Nc2cc(Sc3nnc[nH]3)c3oc(=O)sc3c2)cc1 [4-ethoxy-N-[2-oxo-7-(1H-1,2,4-triazol-5-ylsulfanyl)-1,3-benzoxathiol-5-yl]benzenesulfonamide] | 2.53 µM
COc1ccccc1CNC(=O)c1cc2c(=O)n(C)c3ccccc3c2n1C [4-keto-1,5-dimethyl-N-o-anisyl-pyrrolo[3,2-c]quinoline-2-carboxamide] | 24.7 µM
COC(=O)c1ccc2c(c1)N(Cc1nc(-c3cccc(C)c3)oc1C)C(=O)C1CCCN21 (stereo not given) [4-keto-5-[[5-methyl-2-(m-tolyl)oxazol-4-yl]methyl]-1,2,3,3a-tetrahydropyrrolo[1,2-a]quinoxaline-7-carboxylic acid methyl ester] | 5.97 µM
COc1ccc(S(=O)(=O)Nc2ccc(O)c3ccccc23)cc1 [4-methoxy-N-(4-oxidanylnaphthalen-1-yl)benzenesulfonamide] | 4.07 µM
Cc1sc2nc(C(C)Nc3ccccc3N3CCOCC3)[nH]c(=O)c2c1C (stereo not given) [5,6-dimethyl-2-[1-[2-(4-morpholinyl)anilino]ethyl]-3H-thieno[2,3-d]pyrimidin-4-one] | 14.4 µM
Cc1cccc(Nc2nnc(S)s2)c1C [5-(2,3-dimethylanilino)-3H-1,3,4-thiadiazole-2-thione] | 3.59 µM
N#Cc1c(NC(=O)c2ccc(Cn3cc(Br)cn3)o2)sc2c1CCCCCC2 [5-[(4-bromanylpyrazol-1-yl)methyl]-N-(3-cyano-4,5,6,7,8,9-hexahydrocycloocta[b]thiophen-2-yl)furan-2-carboxamide] | 1.38 µM
Nc1nnc(CSCc2ccc(F)cc2)s1 [5-[(4-fluorophenyl)methylsulfanylmethyl]-1,3,4-thiadiazol-2-amine] | > 50 µM
COC(=O)c1ccc2c(c1)N(Cc1nc(-c3ccc(Cl)cc3)oc1C)C(=O)C1CCCN21 (stereo not given) [5-[[2-(4-chlorophenyl)-5-methyl-4-oxazolyl]methyl]-4-oxo-1,2,3,3a-tetrahydropyrrolo[1,2-a]quinoxaline-7-carboxylic acid methyl ester] | 2.86 µM
CCOC(=O)c1c(N)sn(-c2ccccc2C)c1=S [5-amino-2-(2-methylphenyl)-3-sulfanylidene-4-isothiazolecarboxylic acid ethyl ester] | 2.28 µM
